Results published in patent US9856279B2 (AGIOS PHARMACEUTICALS, INC, priority 2011, dated 2018).
pIC50: −log10 of the molar value. Read-outs that look alike come from different tables or passages of the source.

Assays:
[1] = target: IDH1 R132H (Homo sapiens, UniProt O75874, R132H); assay: Assay for IDH1 R132H inhibitors (NADPH/aKG, resazurin detection); type: biochemical
Method in brief: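 Compound added to substrate mix (8 uM NADPH, 2 mM aKG), then enzyme mix (0.2 μg/ml IDH1 R132H); 50 min RT in 20 mM Tris pH 7.5, 150 mM NaCl, 10 mM MgCl2, 0.03% BSA. Resazurin detection mix (30 μM) 5 min RT; resorufin fluorescence Ex544/Em590.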

[2] = test system: HT1080 cells; assay: Cellular assay for IDH1m inhibitors: inhibition of 2-HG production (LC-MS, 48 hours) in HT1080 cells; type: cell-based; settings: Homo sapiens, HT-1080; inhibition of 2-HG production, HT1080 cells; read-out: HT1080 IC50
Method: Cells (e.g., HT1080 or U87MG) and are grown in T125 flasks in DMEM containing 10% FBS, 1× penicillin/streptomycin and 500 ug/mL G418. They are harvested by trypsin and seeded into 96 well white bottom plates at a density of 5000 cell/well in 100 ul/well in DMEM with 10% FBS. No cells are plates in columns 1 and 12. Cells are incubated overnight at 37° C. in 5% CO2. The next day compounds are made up at 2× concentration and 100 ul are added to each cell well. The final concentration of DMSO is 0.2% and the DMSO control wells are plated in row G. The plates are then placed in the incubator for 48 hours. At 48 hours, 100 μl of media is removed from each well and analyzed by LC-MS for 2-HG concentrations. The cell plate is placed back in the incubator for another 24 hours. At 72 hours post compound addition, 10 mL/plate of Promega Cell Titer Glo reagent is thawed and mixed. The cell plate is removed from the incubator and allowed to equilibrate to room temperature. Then 100 ul of reagent is added to each well of media. The cell plate is then placed on an orbital shaker for 10 minutes and then allowed to sit at room temperature for 20 minutes. The plate is then read for luminescence with an integration time of 500 ms.
The IC50 for inhibition of 2-HG production (concentration of test compound to reduce 2HG production by 50% compared to control) in these two cell lines for various compounds of formula I is set forth in Table 4 above.

[3] = enzyme assay of Example 12, read-out: IDH1R132H IC50
[4] = Table 3, enzyme assay, 50 minutes at room temperature, read-out: IC50 (IDH1 R132H Inhibition)

Sequence of IDH1 R132H (O75874 whole entry R132H): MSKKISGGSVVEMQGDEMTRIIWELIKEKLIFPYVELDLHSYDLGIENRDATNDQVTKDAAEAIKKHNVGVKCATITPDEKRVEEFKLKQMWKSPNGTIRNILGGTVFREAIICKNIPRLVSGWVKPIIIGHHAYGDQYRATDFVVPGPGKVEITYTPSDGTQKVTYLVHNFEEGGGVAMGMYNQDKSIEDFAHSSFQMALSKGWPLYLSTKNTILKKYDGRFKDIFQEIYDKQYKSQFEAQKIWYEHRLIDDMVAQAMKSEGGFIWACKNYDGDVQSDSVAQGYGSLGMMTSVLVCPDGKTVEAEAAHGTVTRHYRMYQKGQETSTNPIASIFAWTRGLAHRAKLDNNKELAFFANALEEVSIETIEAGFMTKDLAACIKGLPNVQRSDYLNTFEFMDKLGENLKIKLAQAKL

pIC50 [1, 3]	pIC50 [2]	pIC50 [1, 4]	SMILES
> 6.30	6.00 to 6.30	–	N#Cc1cc(-c2cccc3cnc(Cl)cc23)c(C2CC2)nc1N1CCN(C(=O)C2CC2)[C@H](C2CC2)C1 [Compound 555, (R)-5-(3-chloroisoquinolin-5-yl)-2-(4-(cyclopropanecarbonyl)-3-cyclopropylpiperazin-1-yl)-6-cyclopropylnicotinonitrile]
> 6.30	> 6.30	–	C=Cc1cc(-c2cc(C#N)c(N3CCN(C(=O)CCO)[C@H](C4CC4)C3)nc2C2CC2)c2cccnc2n1 [Compound 655, (R)-6-cyclopropyl-2-(3-cyclopropyl-4-(3-hydroxypropanoyl)piperazin-1-yl)-5-(2-vinyl-1,8-naphthyridin-4-yl)nicotinonitrile]
6.00 to 6.30	> 6.30	–	C=CC(=O)N1CCCC(c2cc(C#N)c(N3CCN(C(=O)C4CC4)[C@H](C)C3)nc2C2CC2)C1 (stereo partly drawn) [Compound 576, 5-(1-acryloylpiperidin-3-yl)-2-((R)-4-(cyclopropanecarbonyl)-3-methylpiperazin-1-yl)-6-cyclopropylnicotinonitrile]
> 6.30	> 6.30	–	C=CC(=O)N1CCC=C(c2c(C3CC3)nc(N3CCN(C(=O)CCOC)[C@H](C)C3)c(C#N)c2C)C1 [Compound 680, (R)-5-(1-acryloyl-1,2,5,6-tetrahydropyridin-3-yl)-6-cyclopropyl-2-(4-(3-methoxypropanoyl)-3-methylpiperazin-1-yl)-4-methylnicotinonitrile]
> 6.30	6.00 to 6.30	–	N#Cc1cc(-c2cccc3c(O)nccc23)c(C2CC2)nc1N1CCN(C(=O)C2CC2)[C@H](C2CC2)C1 [Compound 566, (R)-2-(4-(cyclopropanecarbonyl)-3-cyclopropylpiperazin-1-yl)-6-cyclopropyl-5-(1-hydroxyisoquinolin-5-yl)nicotinonitrile]
> 6.30	> 6.30	–	COCCC(=O)N1CCN(c2nc(C3CC3)c(Nc3ccnc(Cl)c3)cc2C#N)C[C@H]1C1CC1 [Compound 679, (R)-5-((2-chloropyridin-4-yl)amino)-6-cyclopropyl-2-(3-cyclopropyl-4-(3-methoxypropanoyl)piperazin-1-yl)nicotinonitrile]
> 6.30	> 6.30	–	C=Cc1ccnc(Nc2cc(C#N)c(N3CCN(C(=O)CCCO)[C@H](C4CC4)C3)nc2C2CC2)c1 [Compound 815, (R)-6-cyclopropyl-2-(3-cyclopropyl-4-(4-hydroxybutanoyl)piperazin-1-yl)-5-((4-vinylpyridin-2-yl)amino)nicotinonitrile]
> 6.30	5.00 to 6.00	–	CCS(=O)(=O)N1CCN(c2cc(C#N)c(N3CCN(C(=O)CC(F)(F)F)[C@H](C4CC4)C3)nc2C2CC2)CC1 [Compound 559]
6.00 to 6.30	5.00 to 6.00	–	C=Cc1cncc(-c2cc(C#N)c(N3CCN(C(=O)C4CC4)[C@H](C4CC4)C3)nc2C2CC2)n1 [Compound 515, (R)-2-(4-(cyclopropanecarbonyl)-3-cyclopropylpiperazin-1-yl)-6-cyclopropyl-5-(6-vinylpyrazin-2-yl)nicotinonitrile]
> 6.30	6.00 to 6.30	–	C=C(C)c1cc(-c2cc(C#N)c(N3CCN(C(=O)CCOC)[C@H](C)C3)nc2C2CC2)ncn1 [Compound 598, (R)-6-cyclopropyl-2-(4-(3-methoxypropanoyl)-3-methylpiperazin-1-yl)-5-(6-(prop-1-en-2-yl)pyrimidin-4-yl)nicotinonitrile]
> 6.30	> 6.30	–	Cn1cc(-c2cc(C#N)c(N3CCN(C(=O)CC(F)(F)F)[C@H](C4CC4)C3)nc2C2CC2)c2ccccc2c1=O [Compound 536, (R)-6-cyclopropyl-2-(3-cyclopropyl-4-(3,3,3-trifluoropropanoyl)piperazin-1-yl)-5-(2-methyl-1-oxo-1,2-dihydroisoquinolin-4-yl)nicotinonitrile]
6.00 to 6.30	5.00 to 6.00	–	C=Cc1ncc(Cl)c(-c2cc(C#N)c(N3CCN(C(=O)C4CC4)[C@H](C4CC4)C3)nc2C2CC2)n1 [Compound 533, (R)-5-(5-chloro-2-vinylpyrimidin-4-yl)-2-(4-(cyclopropanecarbonyl)-3-cyclopropylpiperazin-1-yl)-6-cyclopropylnicotinonitrile]
> 6.30	6.00 to 6.30	–	COCCC(=O)N1CCN(c2nc(C3CC3)c(Oc3ccnc(Cl)c3)cc2C#N)C[C@H]1C [Compound 668, (R)-5-((2-chloropyridin-4-yl)oxy)-6-cyclopropyl-2-(4-(3-methoxypropanoyl)-3-methylpiperazin-1-yl)nicotinonitrile]
6.00 to 6.30	> 6.30	–	C=Cc1nccc(-c2cc(C#N)c(N3CCN(C(=O)C4CC4)[C@H](C4CC4)C3)nc2C2CC2)c1F [Compound 520, (R)-6-(4-(cyclopropanecarbonyl)-3-cyclopropylpiperazin-1-yl)-2-cyclopropyl-3′-fluoro-2′-vinyl-3,4′-bipyridine-5-carbonitrile]
> 6.30	> 6.30	–	N#Cc1cc(Nc2ccnc(Cl)c2)c(C2CC2)nc1N1CCN(C(=O)CCO)[C@H](C2CC2)C1 [Compound 677, (R)-5-((2-chloropyridin-4-yl)amino)-6-cyclopropyl-2-(3-cyclopropyl-4-(3-hydroxypropanoyl)piperazin-1-yl)nicotinonitrile]
> 6.30	5.00 to 6.00	–	N#Cc1cc(-c2cnc3[nH]ccc3c2)c(C2CC2)nc1N1CCN(C(=O)CC(F)(F)F)[C@H](C2CC2)C1 [Compound 539, (R)-6-cyclopropyl-2-(3-cyclopropyl-4-(3,3,3-trifluoropropanoyl)piperazin-1-yl)-5-(1H-pyrrolo[2,3-b]pyridin-5-yl)nicotinonitrile]
> 6.30	> 6.30	–	C=Cc1cc(-c2c(C3CC3)nc(N3CCN(C(=O)CC4CCC4)[C@H](C4CC4)C3)c(C#N)c2C)ccn1 [Compound 819, (R)-6-(4-(2-cyclobutylacetyl)-3-cyclopropylpiperazin-1-yl)-2-cyclopropyl-4-methyl-2′-vinyl-3,4′-bipyridine-5-carbonitrile]
> 6.30	> 6.30	–	C=Cc1nc(-c2cc(C#N)c(N3CCN(C(=O)C4CC4)[C@H](C4CC4)C3)nc2C2CC2)c2ccccc2n1 [Compound 669, (R)-2-(4-(cyclopropanecarbonyl)-3-cyclopropylpiperazin-1-yl)-6-cyclopropyl-5-(2-vinylquinazolin-4-yl)nicotinonitrile]
–	–	5.30 to 6.00	COc1ccccc1-c1cc(C#N)c(N2CCN(C(=O)c3ccoc3C)[C@H](C)C2)nc1C(C)C [Compound 178, (R)-6-isopropyl-5-(2-methoxyphenyl)-2-(3-methyl-4-(2-methylfuran-3-carbonyl)piperazin-1-yl)nicotino-nitrile]
–	–	4.82 to 5.30	CC1CN(c2nc(-c3ccccc3)c(-c3ccccc3)cc2C#N)CCN1C(=O)c1ccoc1 (stereo not shown) [Compound 118, 2-(4-(furan-3-carbonyl)-3-methylpiperazin-1-yl)-5,6-diphenylnicotinonitrile]
–	–	≥ 6.00	COCCC(=O)N1CCN(c2nc(C3CC3)c(-c3ccc(OC(F)(F)F)cc3)c(C)c2C#N)C[C@H]1C [Compound 255, (R)-6-cyclopropyl-2-(4-(3-methoxypropanoyl)-3-methylpiperazin-1-yl)-4-methyl-5-(4-(trifluoromethoxy)-phenyl)nicotinonitrile]
–	–	5.30 to 6.00	CC[C@@H]1CN(c2nc(C(C)C)c(-c3ccccc3)cc2C#N)CCN1C(=O)c1ccoc1 [Compound 171, (R)-2-(3-ethyl-4-(furan-3-carbonyl)piperazin-1-yl)-6-isopropyl-5-phenylnicotinonitrile]
